{"source": "paper PMC10609273", "about": "“Radiosynthesis and Early Evaluation of a Positron Emission Tomography Imaging Probe [^18F]AGAL Targeting Alpha-Galactosidase A Enzyme for Fabry Disease” (Molecules, 2023)", "type_in_all_cases": "in vitro ADME", "key": {"[1]": {"assay": "Bidirectional permeability in Caco-2 cells", "settings": "human, Caco-2, 5 µM, alone; for efflux ratio at 60 min, 5 µM: read-out: Ratio (B/A), efflux ratio", "protocol": "The Caco-2 cell culture and bidirectional permeability assays used in the study were adapted from previous studies at Takeda. Briefly, Caco-2 cells were obtained from American Type Culture Collection (ATCC) (Manassas, VA, USA) and were cultured in 175 cm^2 tissue culture T-flasks (Corning Life Sciences, Corning, NY, USA). For bidirectional permeability assays, cells were plated onto Costar 24-well culture plates (0.33 cm^2/well, […] (Corning Life Sciences, Corning, NY, USA) by adding 1 × 10^5 cells suspended in 0.2 mL of culture medium (Dulbecco’s modified Eagle’s medium [DMEM] with 0.1 mM non-essential amino acids, 2 mM L-glutamine, 4.5 g/L glucose, and 10% fetal bovine serum [FBS]) to the upper chamber of each well of the 24-well transwell plate. Cell-free culture medium (40 mL) was added to the lower chamber reservoir (Corning Life Sciences, Corning, NY, USA). The transwell plates were then incubated at 37 °C in an atmosphere of 5% CO2 for 25 days to ensure complete enterocyte-like differentiation of the cells, and the culture medium was changed every three to four days during the incubation period. Cell monolayers with transepithelial electrical resistance (TEER) values > 250 ohms × cm^2 were used for the bidirectional permeability assays.\nAll chemicals and reagents including control compounds were purchased from commercial sources such as Sigma-Aldrich or synthesized in house (pevonedistat and LY335979). Bidirectional transport studies were performed at 37 °C. Before each experiment, the confluent cell monolayers on transwell inserts were washed and equilibrated for 30 min with transport media (Hank’s Balanced Salt Solution [HBSS] containing 25 mM 4-(2-hydroxyethyl)-1-piperazineethanesulfonic acid [HEPES] and 10 mM glucose, pH 7.4 or 6.5). The bidirectional permeability of 5 µM of the cyclohexane derivative was assessed alone or in the presence of 5 µM LY335979, 5 µM K0143, or 10 µM Elacridar to inhibit P-gp, BCRP, and both efflux transporters, respectively. Additionally, the bi-directional permeability of 5 µM solutions of nadolol (low permeable control marker), minoxidil (high permeable marker), propranolol (high permeable marker), and pevonedistat (efflux transporter control) was also assessed. The experiment was initiated by adding a solution containing the test compounds and LY335979 to either the apical (for apical-to-basolateral [A-to-B] transport) or basolateral (for basolateral-to-apical [B-to-A] transport) compartment. Lucifer yellow (50 µM) was added to each donor chamber in the experiment to serve as a paracellular transport control and to monitor cell monolayer integrity. The apical volume was 0.2 mL and the basolateral volume was 1.0 mL. Bovine serum albumin (BSA, Sigma Aldrich) (5%) was added to the transport media on the receiver side to prevent non-specific binding of the test compound to the polystyrene well. After the addition of test compound into the donor side, […] of the receiving solution were withdrawn from the receiver side at 30 and 60 min. A […] of fresh transport media was immediately added to the receiver side at 30 and 60 min. The samples were placed into 96-well black plates (PerkinElmer Life Sciences, Boston, MA, USA) for fluorescence measurement (excitation at 450 nm and emission at 535 nm). After this measurement, the amounts of cyclohexane derivative and control compounds in each sample were quantified with liquid chromatography–mass spectrometry (LC–MS). The time course of drug transported across cell monolayers was analyzed to determine the time and rate of steady-state flux. The transport rate (total amount of drug present in the receiver chamber per unit time), Papp, and efflux ratio were calculated as described in Equations (4) and (5). […]"}, "[2]": {"assay": "Plasma stability study, human", "settings": "pooled plasma, 37 °C, read-out: Plasma Half-Life, t1/2", "protocol": "(§1) Briefly, plasma stability was assessed by incubating compounds in the presence of human (pooled) and mouse (pooled) plasma (Bioreclamation, Westbury, NY, USA). All chemicals and reagents including control compounds were purchased from commercial sources such as Sigma-Aldrich or Toronto Research Chemicals. Plasma incubations were conducted by placing plasma (95 μL) in a 96-well microtiter plate and warming to 37 °C for 5 min. The reaction was initiated with the addition of the test article (5 μL of 20 μM), totaling 100 μL in incubation volume. At 0, 15, 30, 60, and 120 min time points, the reactions were terminated with the addition of acetonitrile-containing carbutamide (as an internal standard). The terminated samples were then centrifuged at 2 °C to pellet the protein, and the supernatant was injected onto an LC–MS. The test article was monitored for loss over time and the t1/2 was determined."}, "[3]": {"assay": "Plasma stability study, mouse", "settings": "mouse, pooled plasma, 37 °C, read-out: Plasma Half-Life, t1/2", "protocol": "as §1"}, "[4]": {"assay": "In vitro liver microsomal metabolism study, human", "settings": "human liver microsomes", "protocol": "(§2) Metabolic stability was assessed by incubating compounds in the presence of human, rat, and mouse liver microsomal fractions (Xenotech, Kansas City, KS, USA). All chemicals and reagents, including control compounds, were purchased from commercial sources such as Sigma-Aldrich (St. Louis, MO, USA) or Toronto Research Chemicals (North York, ON, Canada). Liver microsomal incubations were conducted with 100 mM phosphate buffer, 0.5 mg/mL of liver microsomal protein, 2 mM NADPH, 2.5 mM UDPGA, 3 mM MgCl2, alamethicin, and 1 μM test article for a total incubation volume of 80 µL. All reagents except the liver microsomes were mixed together and aliquoted (60 μL) into 96-well plates. The reaction was initiated by adding the microsomes (20 μL). At 0, 3, 7, 12, 20, and 30 min time points, the reactions were terminated with the addition of acetonitrile-containing carbutamide (as an internal standard). The terminated samples were then centrifuged at 2 °C to pellet the protein and the supernatant was injected onto an LC–MS. The test article was monitored for loss over time and the t1/2 was determined. The calculated t1/2 was then used as described below to determine the Eh (hepatic extraction ratio) for both human and rat.\n(§3) The intrinsic clearance (CLint), hepatic clearance (CLh), and hepatic extraction ratio (Eh) were calculated using the equations below. CLint = (0.693/t1/2 in vitro) × (mL incubation volume/mg microsomal protein) × (X mg of microsomal protein/gram of liver) × (Y g of liver/kg of body weight)(1) CLh = Q × CLint/Q + CLint(2) Eh = CLh/Q(3) where: • CLint = intrinsic clearance (calculated from microsomal incubations) • X = 40 for human, 41.5 for rat and 45 for mouse • Y = 21.4 for human, 40 for rat and 50 for mouse • t1/2 = half-life • CLh = hepatic clearance • Q = liver blood flow rate = 1.24 L/h/kg for human, 4.8 L/h/kg for rat, and 5.4 L/h/kg for mouse • Eh = hepatic extraction ratio • CLh = hepatic clearance"}, "[5]": {"assay": "In vitro liver microsomal metabolism study, rat", "settings": "rat liver microsomes", "protocol": "as §2, §3"}, "[6]": {"assay": "In vitro liver microsomal metabolism study, mouse", "settings": "mouse liver microsomes", "protocol": "as §2, §3"}}}
{"smiles": "CC(C)(C)NCC(O)COc1cccc2c1CC(O)C(O)C2", "note": "(stereo not shown) [Nadolol, reference compound]", "values": [{"measurement": "Papp A→B at 60 min, 5 µM", "setting": "[1]", "value": 0.36, "unit": "×10⁻⁶ cm/s"}, {"measurement": "Papp B→A at 60 min, 5 µM", "setting": "[1]", "value": 1.45, "unit": "×10⁻⁶ cm/s"}, {"measurement": "efflux ratio at 60 min, 5 µM", "setting": "[1]", "value": 4.1}]}
{"smiles": "CC(C)[N+](C)(CCOC(=O)C1c2ccccc2Oc2ccccc21)C(C)C", "note": "[Propantheline, reference compound]", "values": [{"measurement": "half-life at 1 µM", "setting": "[2]", "value": 7.22, "unit": "min"}, {"measurement": "half-life at 1 µM", "setting": "[3]", "value": 26, "unit": "min"}]}
{"smiles": "Nc1cc(N2CCCCC2)nc(N)[n+]1[O-]", "note": "[Minoxidil, reference compound]", "values": [{"measurement": "Papp A→B at 60 min, 5 µM", "setting": "[1]", "value": 7.81, "unit": "×10⁻⁶ cm/s"}, {"measurement": "Papp B→A at 60 min, 5 µM", "setting": "[1]", "value": 9.78, "unit": "×10⁻⁶ cm/s"}, {"measurement": "efflux ratio at 60 min, 5 µM", "setting": "[1]", "value": 1.3}]}
{"smiles": "CC(C)NCC(O)COc1cccc2ccccc12", "note": "(stereo not shown) [Propranolol, reference compound]", "values": [{"measurement": "Papp A→B at 60 min, 5 µM", "setting": "[1]", "value": 43.7, "unit": "×10⁻⁶ cm/s"}, {"measurement": "Papp B→A at 60 min, 5 µM", "setting": "[1]", "value": 44.4, "unit": "×10⁻⁶ cm/s"}, {"measurement": "efflux ratio at 60 min, 5 µM", "setting": "[1]", "value": 1}]}
{"smiles": "CCOC(=O)[C@H](CCc1ccccc1)N[C@@H](C)C(=O)N1CCC[C@H]1C(=O)O", "note": "[Enalapril, reference compound]", "values": [{"measurement": "half-life at 1 µM", "setting": "[2]", "value": 283, "unit": "min"}, {"measurement": "half-life at 1 µM", "setting": "[3]", "value": 30.6, "unit": "min"}]}
{"smiles": "NS(=O)(=O)OC[C@@H]1C[C@@H](n2ccc3c(N[C@H]4CCc5ccccc54)ncnc32)C[C@@H]1O", "note": "[Pevonedistat, reference compound]", "values": [{"measurement": "Papp A→B at 60 min, 5 µM", "setting": "[1]", "value": 3.37, "unit": "×10⁻⁶ cm/s"}, {"measurement": "Papp B→A at 60 min, 5 µM", "setting": "[1]", "value": 63.4, "unit": "×10⁻⁶ cm/s"}, {"measurement": "efflux ratio at 60 min, 5 µM", "setting": "[1]", "value": 18.8}]}
{"smiles": "COc1ccc2c(c1)[C@]13CCCC[C@@H]1[C@H](C2)N(C)CC3", "note": "[Dextromethorphan, reference compound]", "values": [{"measurement": "CLh", "setting": "[4]", "value": 14, "unit": "mL/min/kg"}, {"measurement": "Eh (hepatic extraction ratio)", "setting": "[4]", "value": 0.676}, {"measurement": "CLint scaled at 1 µM", "setting": "[4]; 1 μM, NADPH + UDPGA", "value": 43.2, "unit": "mL/min/kg"}, {"measurement": "CLh", "setting": "[5]", "value": 71.2, "unit": "mL/min/kg"}, {"measurement": "Eh (hepatic extraction ratio)", "setting": "[5]", "value": 0.889}, {"measurement": "CLint scaled at 1 µM", "setting": "[5]; 1 μM, NADPH + UDPGA", "value": 642, "unit": "mL/min/kg"}, {"measurement": "CLh", "setting": "[6]", "value": 77.3, "unit": "mL/min/kg"}, {"measurement": "Eh (hepatic extraction ratio)", "setting": "[6]", "value": 0.860}, {"measurement": "CLint scaled at 1 µM", "setting": "[6]; 1 μM, NADPH + UDPGA", "value": 552, "unit": "mL/min/kg"}]}
